Laboratory results reported in paper PMC2453235, “Identification and Rational Redesign of Peptide Ligands to CRIP1, A Novel Biomarker for Cancers” (PLoS Computational Biology, 2008).
Where a SMILES comes first, the peptide text is derived from it. Bridges are numbered along the chain shown (N, C = ends). Where no end group is shown, it is not given here. The star is where a group is joined. 5FAM = O=C1OC2(c3ccc(O)cc3Oc3cc(O)ccc32)c2ccc(C(=O)*)cc21

T1: CRIP1 (Homo sapiens, UniProt P50238)
T1 construct: enterokinase cleavage site and vector linker residues (N); made in house; host or cells: E. coli (pHAT10-CRIP1, IPTG induction)
T1 sequence (P50238 1-77): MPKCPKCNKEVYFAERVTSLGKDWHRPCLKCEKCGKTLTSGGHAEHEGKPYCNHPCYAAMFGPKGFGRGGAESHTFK

T2: Cysteine-rich intestinal protein 1 (CRIP1), purified protein coated on plates for the peptide binding assays (human, UniProt P50238 1-77)
T2 construct: Cysteine-rich intestinal protein 1 (CRIP1), human; coding region of the cDNA, 77 amino acids; also called CRIP1 protein; source: bacteria (pHAT10-CRIP1, IPTG induced), purified (TALON CellThru resin)
T2 sequence (looked up): T1 sequence (P50238 1-77)

B1: FITC-cyclic-A1 peptide (peptide)
peptide: H-CLKDNHRSCGGGSK-NH2
modifications: disulfide 1-9 (inferred); not fully specified (residue 14); printed as NH_2_-C-L-K-D-N-H-R-S-C-G-G-G-S-K-(FITC)-CONH_2_
notes: insert of phage clone A1 (C7C library) followed by the phage spacer Gly-Gly-Gly-Ser and a C-terminal Lys for labelling; also called FITC-A1; parent A1 peptide; source: synthetic peptide (Fmoc chemistry, HPLC purified, cyclised by oxidation in DMSO)
B2: unlabeled A1 peptide (peptide)
peptide: CLKDNHRSCGGGSK
modifications: disulfide 1-9 (inferred)
notes: also called original A1 peptide; source: synthetic peptide
B3: FITC-cyclic-A1M peptide (peptide)
peptide: H-CLDGGGKGCGGGSK-NH2
modifications: disulfide 1-9 (inferred); not fully specified (residue 14); printed as NH_2_-C-L-D-G-G-G-K-G-C-G-G-G-S-K-(FITC)-CONH_2_
notes: also called FITC-A1M; modified A1; source: synthetic peptide (Fmoc chemistry, HPLC purified, cyclised by oxidation in DMSO)
B4: FITC-cyclic-B5 peptide (peptide)
peptide: CYDPIWRTCGGGSK-NH2
modifications: disulfide 1-9 (inferred); not fully specified (residue 14); printed as C-Y-D-P-I-W-R-T-C-G-G-G-S-K-(FITC)-CONH_2_
notes: insert of phage clone B5 (C7C library) followed by the phage spacer Gly-Gly-Gly-Ser and a C-terminal Lys for labelling; also called FITC-B5; source: synthetic peptide (Fmoc chemistry, HPLC purified, cyclised by oxidation in DMSO)

Experiments:
[1] = molecular target: T1, CRIP1; test: ELISA of individual phage clones binding to immobilized CRIP1; conditions: purified chimeric CRIP1 not reacted with enterokinase
Description: To select clones for further analysis, we used ELISA to determine the relative binding affinities of selected individual phage clones to purified CRIP1 (see Methods and Figure S3). For these studies the purified chimeric CRIP1 was not reacted with enterokinase.
Supplementary file pcbi.1000138.s003.tif: Figure S3 Relative estimates of peptide affinity for CRIP1. Phage binding against immobilized CRIP-1. (0.38 MB TIF) Click here for additional data file.

[2] = molecular target: T1, CRIP1; test: Phage display panning (Ph.D.-C7C library), frequency of enriched sequences; type: binding; conditions: 4 rounds of panning against enterokinase-truncated CRIP1, 29 phage inserts sequenced
Method: In order to generate CRIP1 protein that was as similar as possible to endogenous CRIP1, enterokinase cleavage was performed on purified CRIP1. Uncleaved contaminating HIS-tagged CRIP1 as well as HIS-tagged peptides were removed by re-running the digest over the CellThru resin and retaining the flow thru. […] After four rounds of positive selection against enterokinase-truncated CRIP1, 29 phage DNA inserts were sequenced using a 96 gIII primer (5′-^HOCCC TCA TAG TTA GCG TAA CG-3′). Sequencing verified that 18 of the 29 phagotopes were from the cysteine-constrained phage library, Table 1. Many of the peptide sequences contained similar motifs and six sequences occurred in more than one phagotope. The peptides A1 and C5 were identified four times, C1 three times, and A9, B1, and B5 twice. However, even accounting for conserved amino acid substitutions, no clear motif could be identified.
CRIP1 was digested with enterokinase (Roche Diagnostics, Inc.) to remove the His tag and then was used as bait for 4 rounds of panning with the Ph.D.-C7C Phage Display Peptide Library (New England Biolabs). The nucleotide sequence of the gene III insert was determined by sequencing the phage, and the amino acid sequence of the insert was deduced from the nucleotide sequence, shown in Table 1.

[3] = molecular target: T2, Cysteine-rich intestinal protein 1 …; test: saturation binding of FITC-labelled peptide to protein-coated plates (fluorescence read-out); data not shown; 'similar assays' to the saturation binding of FITC-A1M on coated CRIP1; apparent Kd; conditions: both partners purified
[4] = molecular target: T2, Cysteine-rich intestinal protein 1 …; test: competitive binding on protein-coated plates (fluorescence read-out); CRIP1 coated on 96-well plates (100 µg/ml in PBS, overnight 4°C); 10 µM FITC-A1M held constant, unlabeled A1 or A1M 0 to 300 µM, 1 h at 37°C; one binding site model; conditions: both partners purified
[5] = molecular target: T2, Cysteine-rich intestinal protein 1 …; test: saturation binding of FITC-labelled peptide to protein-coated plates (fluorescence read-out); CRIP1 coated on 96-well plates (100 µg/ml in PBS, overnight 4°C), blocked with 0.5% BSA in TBS; FITC peptide 50 nM to 100 µM, 1 h at 37°C; non-specific binding with 1 mM unlabeled peptide; apparent Kd by non-linear regression; conditions: both partners purified

| Molecule | Frequency (number of phage clones with the sequence) [2] | other results |
| --- | --- | --- |
| CC(C)C[C@@H]1NC(=O)[C@@H](N)CSSC[C@@H](C(=O)NCC(=O)NCC(=O)NCC(=O)N[C@@H](CO)C(=O)N[C@@H](CCCCN)C(N)=O)NC(=O)[C@H](CO)NC(=O)[C@H](CCCNC(=N)N)NC(=O)[C@H](Cc2c[nH]cn2)NC(=O)[C@H](CC(N)=O)NC(=O)[C@H](CC(=O)O)NC(=O)[C@H](CCCCN)NC1=O [A1] (H-CLKDNHRSCGGGSK-NH2; disulfide 1-9; N-terminus assumed) | – | relative binding affinity of phage clone [1]: higher relative affinity |
| CC[C@H](C)[C@@H]1NC(=O)[C@@H]2CCCN2C(=O)[C@H](CC(=O)O)NC(=O)[C@H](Cc2ccc(O)cc2)NC(=O)[C@@H](N)CSSC[C@@H](C(=O)NCC(=O)NCC(=O)NCC(=O)N[C@@H](CO)C(=O)N[C@@H](CCCCNC(=O)c2ccc3c(c2)C(=O)OC32c3ccc(O)cc3Oc3cc(O)ccc32)C(N)=O)NC(=O)[C@H]([C@@H](C)O)NC(=O)[C@H](CCCNC(=N)N)NC(=O)[C@H](Cc2c[nH]c3ccccc23)NC1=O [B5] (H-CYDPIWRTCGGGSK(5FAM)-NH2; disulfide 1-9; N-terminus assumed) | – | relative binding affinity of phage clone [1]: higher relative affinity |
| APYNTLA (disulfide (positions not given here)) [A6, C7C phage display peptide APYNTLA] | 1 | – |
| DHRQGSS (disulfide (positions not given here)) [A5, C7C phage display peptide DHRQGSS] | 1 | – |
| FSTNMKT (disulfide (positions not given here)) [B3, C7C phage display peptide FSTNMKT] | 1 | – |
| HANFLHM (disulfide) [C2, C7C phage display peptide HANFLHM] | 1 | – |
| LPAYSTY (disulfide (positions not given here)) [B9, C7C phage display peptide LPAYSTY] | 1 | – |
| PLFKGMS (disulfide (positions not given here)) [B7, C7C phage display peptide PLFKGMS] | 1 | – |
| RDSSAHQ (disulfide (positions not given here)) [B10, C7C phage display peptide RDSSAHQ] | 1 | – |
| RTTGAQT (disulfide (positions not given here)) [B4, C7C phage display peptide RTTGAQT] | 1 | – |
| SLNTRSQ (disulfide (positions not given here)) [C9, C7C phage display peptide SLNTRSQ] | 1 | – |
| SPHIIAS (disulfide (positions not given here)) [A8, C7C phage display peptide SPHIIAS] | 1 | – |
| SVPINDS (disulfide) [A3, C7C phage display peptide SVPINDS] | 1 | – |
| TPRQSPI (disulfide) [C5, C7C phage display peptide TPRQSPI] | – | relative binding affinity of phage clone [1]: lower binding affinity |
| YDPIWRT (disulfide (positions not given here)) [B2, C7C phage display peptide YDPIWRT] | 1 | – |
| B1 | – | Kd [3]: 34.4 µM |
| B2 | – | IC50 [4]: 8.8 µM |
| CLDGGGKGCGGGSK (disulfide 1-9 (inferred), source: synthetic peptide) [unlabeled A1M peptide] | – | IC50 [4]: 0.32 µM; Ki [4]: 0.067 µM |
| B3 | – | Kd [5]: 2.6 µM |
| B4 | – | Kd [3]: 62.5 µM |
